Columns and labels:
Conditions in all cases: 10 μM, 48 hours
[1] = tested on: DU-145
[2] = tested on: MOLT-4; assay: NCI screen antiproliferative activity, sulforhodamine B, Leukemia panel; assay type: cell-based, human
[3] = tested on: OVCAR-8
[4] = tested on: RXF 393
[5] = tested on: MDA-MB-435
[6] = tested on: SK-MEL-5; assay: NCI screen antiproliferative activity, sulforhodamine B, Melanoma panel; assay type: cell-based, human
[7] = tested on: UO-31
[8] = tested on: SW-620; assay: NCI screen antiproliferative activity, sulforhodamine B, Colon Cancer panel; assay type: cell-based, human
[9] = tested on: IGROV1
[10] = tested on: 786-0
[11] = tested on: A549/ATCC
[12] = tested on: MCF7
[13] = tested on: HCT-116
[14] = tested on: SF-539
[15] = tested on: NCI-H226
[16] = tested on: T-47D
[17] = tested on: UACC-62
[18] = tested on: HCC-2998
[19] = tested on: NCI-H322M
[20] = tested on: OVCAR-4
[21] = tested on: RPMI-8226; assay: NCI screen antiproliferative activity, sulforhodamine B, Leukemia panel; assay type: cell-based, human
[22] = tested on: PC-3
[23] = tested on: SK-OV-3
[24] = tested on: BT-549
[25] = tested on: OVCAR-5
[26] = tested on: HT29
[27] = tested on: SNB-19
[28] = tested on: NCI-H522
[29] = tested on: SK-MEL-28
[30] = tested on: ACHN
[31] = tested on: SN12C
[32] = tested on: NCI-H460
[33] = tested on: NCI/ADR-RES; assay: NCI screen antiproliferative activity, sulforhodamine B, Ovarian Cancer panel; assay type: cell-based, human
Experimental: (§1) The antiproliferative activity of compounds were determined in the National Cancer Institute (NCI) screen (Drug. Dev. Res. 1995, 34, 91-109; J. Natl. Cancer Inst. 1990, 82, 1107-1112; Drug Dev. Res. 1995, 34, 91-109). For certain compounds, cells of approximately 60 different human cancer cell lines were incubated for 48 hours with five 10-fold dilutions of the tested compounds starting from 100 μM and then treated with sulforhodamine B dye. For other compounds, cells of approximately 60 different human cancer cell lines were incubated for 48 hours with a concentration of 10 μM test compound. The ratios of recorded optical densities relative to that of the control were plotted as a function of the common logarithm of the tested compound concentrations or growth percent (for single concentration tests). The interpolation between the points located above and below the 50% percentage growth provided 50% growth inhibition (GI50) values. Total growth inhibition (TGI) and 50% lethal concentrations (LC50) were also calculated using reported methods. A “-” means not tested and/or not-determined.

[34] = tested on: MALME-3M; assay: NCI screen antiproliferative activity, sulforhodamine B, Melanoma panel; assay type: cell-based, human
[35] = tested on: HOP-62
[36] = tested on: MDA-MB-231/ATCC
[37] = tested on: HOP-92
[38] = tested on: MDA-MB-468; assay: NCI screen antiproliferative activity, sulforhodamine B, Breast Cancer panel; assay type: cell-based, human
Experimental: as §1

[39] = tested on: NCI-H23
[40] = tested on: M14
[41] = tested on: COLO 205; assay: NCI screen antiproliferative activity, sulforhodamine B, Colon Cancer panel; assay type: cell-based, human
[42] = tested on: SF-268
[43] = tested on: A498; assay: NCI screen antiproliferative activity, sulforhodamine B, Renal Cancer panel; assay type: cell-based, human
Experimental: as §1

[44] = tested on: CCRF-CEM; assay: NCI screen antiproliferative activity, sulforhodamine B, Leukemia panel; assay type: cell-based, human
Experimental: as §1

[45] = tested on: HL-60(TB); assay: as above; assay type: cell-based, human
Experimental: as §1

[46] = tested on: HS 578T; assay: NCI screen antiproliferative activity, sulforhodamine B, Breast Cancer panel; assay type: cell-based, human
[47] = tested on: LOX IMVI; assay: NCI screen antiproliferative activity, sulforhodamine B, Melanoma panel; assay type: cell-based, human
[48] = tested on: SNB-75
[49] = tested on: SR; assay: NCI screen antiproliferative activity, sulforhodamine B, Leukemia panel; assay type: cell-based, human
[50] = tested on: OVCAR-3
[51] = tested on: HCT-15
[52] = tested on: KM12; assay: NCI screen antiproliferative activity, sulforhodamine B, Colon Cancer panel; assay type: cell-based, human
[53] = tested on: CAKI-1
[54] = tested on: K-562; assay: NCI screen antiproliferative activity, sulforhodamine B, Leukemia panel; assay type: cell-based, human
[55] = tested on: TK-10

CCCCCN(CCCCC)CCC[C@@H](C)[C@H]1CC[C@H]2[C@@H]3[C@H](OCCCN)C[C@@H]4C[C@H](OCCCN)CC[C@]4(C)[C@H]3C[C@H](OCCCN)[C@]12C [CSA-90]
Growth Percent [1]: 76.50% | Growth Percent [2]: 41.11% | Growth Percent [3]: 55.32% | Growth Percent [4]: 87.11% | Growth Percent [5]: −13.61% | Growth Percent [6]: 25.14% | Growth Percent [7]: 65.22% | Growth Percent [8]: 45.90% | Growth Percent [9]: 29.55% | Growth Percent [10]: 61.11% | Growth Percent [11]: 55.21% | Growth Percent [12]: 74.77% | Growth Percent [13]: 22.71% | Growth Percent [14]: −21.94% | Growth Percent [15]: 75.25% | Growth Percent [16]: 68.11% | Growth Percent [17]: 13.55% | Growth Percent [18]: 59.63% | Growth Percent [19]: 24.61% | Growth Percent [20]: 85.16% | Growth Percent [21]: −17.73% | Growth Percent [22]: 80.53% | Growth Percent [23]: 93.22% | Growth Percent [24]: 54.97% | Growth Percent [25]: 66.15% | Growth Percent [26]: 24.49% | Growth Percent [27]: 61.03% | Growth Percent [28]: 28.85% | Growth Percent [29]: 27.91% | Growth Percent [30]: 54.72% | Growth Percent [31]: 54.27% | Growth Percent [32]: 45.20% | Growth Percent [33]: 76.04% | Growth Percent [34]: 62.21% | Growth Percent [35]: 48.28% | Growth Percent [36]: 36.97% | Growth Percent [37]: 50.03% | Growth Percent [38]: 71.06% | Growth Percent [39]: 49.16% | Growth Percent [40]: 42.81% | Growth Percent [41]: 52.08% | Growth Percent [42]: 87.47% | Growth Percent [43]: 92.77% | Growth Percent [44]: 15.29% | Growth Percent [45]: −16.84% | Growth Percent [46]: 66.91% | Growth Percent [47]: 3.00% | Growth Percent [48]: 70.61% | Growth Percent [49]: 19.21% | Growth Percent [50]: 107.13% | Growth Percent [51]: 72.31% | Growth Percent [52]: 22.46% | Growth Percent [53]: 75.81% | Growth Percent [54]: −19.42%

CCCCCCCCCCCCCCCCNCCCC(C)C1CCC2C3C(OCCCN)CC4CC(OCCCN)CCC4(C)C3CC(OCCCN)C12C.Cl.Cl.Cl.Cl (stereo not shown) [CSA-92]
Growth Percent [1]: −82.24% | Growth Percent [2]: −33.70% | Growth Percent [3]: −48.90% | Growth Percent [4]: −41.21% | Growth Percent [5]: −28.31% | Growth Percent [6]: 3.14% | Growth Percent [7]: −52.51% | Growth Percent [8]: −25.31% | Growth Percent [9]: −41.76% | Growth Percent [10]: −43.08% | Growth Percent [11]: −57.98% | Growth Percent [12]: −44.27% | Growth Percent [13]: −16.64% | Growth Percent [14]: −68.05% | Growth Percent [15]: −1.42% | Growth Percent [16]: −20.87% | Growth Percent [17]: −64.22% | Growth Percent [18]: −32.41% | Growth Percent [19]: −76.83% | Growth Percent [20]: −37.10% | Growth Percent [21]: −15.39% | Growth Percent [22]: −14.45% | Growth Percent [23]: −45.67% | Growth Percent [24]: −26.02% | Growth Percent [25]: −3.67% | Growth Percent [26]: −40.97% | Growth Percent [27]: −66.56% | Growth Percent [28]: −43.60% | Growth Percent [29]: −64.73% | Growth Percent [30]: −26.45% | Growth Percent [31]: −82.86% | Growth Percent [32]: −45.47% | Growth Percent [33]: −60.60% | Growth Percent [34]: −60.74% | Growth Percent [35]: −49.53% | Growth Percent [36]: −98.22% | Growth Percent [37]: −33.16% | Growth Percent [38]: −55.21% | Growth Percent [39]: −39.72% | Growth Percent [40]: −28.70% | Growth Percent [41]: −40.80% | Growth Percent [42]: −38.18% | Growth Percent [55]: −60.33% | Growth Percent [43]: −5.88% | Growth Percent [44]: −45.52% | Growth Percent [45]: 4.50% | Growth Percent [46]: −34.00% | Growth Percent [47]: −60.40% | Growth Percent [48]: −64.78% | Growth Percent [49]: 2.63% | Growth Percent [50]: −10.46% | Growth Percent [51]: 7.08% | Growth Percent [52]: −24.28% | Growth Percent [53]: −70.80% | Growth Percent [54]: −34.68%

Source: US9943529B2, “Methods for reducing cellular proliferation and treating certain diseases” (BRIGHAM YOUNG UNIVERSITY, priority 2013, dated 2018)
